101 compounds from PubChem BioAssay AID1552 (Sanford-Burnham Center for Chemical Genomics, 2009) can be followed below.

Activity calls are given as the source filed them. No rule for the calls is given here.

This experiment deals with Ubiquitin-conjugating enzyme E2 N (Homo sapiens) (UniProt P61088). As to the kind of experiment: NMR detection of UBE2N ligand binding – biophysical, purified protein (AID 1552). The note with it: NMR binding to purified UBE2N.
Chain of Ubiquitin-conjugating enzyme E2 N (Homo sapiens) (P61088 whole entry, looked up): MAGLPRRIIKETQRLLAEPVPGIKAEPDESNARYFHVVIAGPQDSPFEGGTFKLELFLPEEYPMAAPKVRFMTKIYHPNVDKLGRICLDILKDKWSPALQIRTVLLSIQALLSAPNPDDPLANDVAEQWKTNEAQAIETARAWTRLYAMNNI
As usually defined, the Kd is a measure of binding affinity in units of concentration. Take `O=S(=O)(O)c1nc2ccccc2[nH]1`: the Kd is > 4 mM (inactive). `Cc1nc(-c2cccc(C(=O)O)c2)cs1`: the Kd was > 4 mM (inactive).

Regarding `CC1=CCCC2C1(C)CCC(C)C2(C)CC/C(C)=C/C[n+]1cn(C)c2c(N)ncnc21` (stereo unspecified), the Kd is > 4 mM (inactive). For `CCOC(=O)c1c(C)nc2c(C#N)cnn2c1C`, the Kd was > 4 mM (inactive). For the compound `COc1ccc(C(O)c2nccn2C)cc1` (stereo unspecified), the Kd is > 4 mM (inactive). Consider `Nc1cccc(CC(=S)N2CCOCC2)c1`, for which the Kd is > 4 mM (inactive). For `NC(CSCSCC(N)C(=O)O)C(=O)O` (stereo unspecified), the Kd was > 4 mM (inactive).

With `CC1=C(C(N)=O)C(c2cccs2)C(C(N)=O)=C(C)N1`, the Kd is > 4 mM (inactive). Turning to `Cc1sc2nc3n(c(=O)c2c1C)CCCS3`, the Kd was > 4 mM (inactive). For `O=C(NCCCO)c1ccncc1`, the Kd is > 4 mM (inactive). The value for `OCC1Cc2ccccc2CN1` (stereo unspecified) was > 4 mM (inactive); that for `O=C1COc2ccc(C(=O)c3ccccc3)cc2CN1` was > 4 mM (inactive).

Consider `O=C(O)C(O)C(O)C(O)C(O)C(=O)O` (stereo unspecified), for which the Kd was > 4 mM (inactive). With `Cc1ccn(S(=O)(=O)c2ccc(C(C)(C)C)cc2)n1`, the Kd is > 4 mM (inactive). The value for `CC(=O)N1CCc2cc(NC(=O)c3ccc(C)cc3)ccc21` was > 4 mM (inactive); that for `COCC(=O)OCn1nnc2ccccc2c1=O` was > 4 mM (inactive); that for `O=C(O)C1CC(=O)N(Cc2cccs2)C1` (stereo unspecified) was > 4 mM (inactive). Turning to `Cc1onc(-c2ccccc2)c1CN`, the Kd is > 4 mM (inactive). Consider `CCC(=O)Nc1cc(C(C)C)c(O)cc1C`, for which the Kd was > 4 mM (inactive).

In the case of `NC(=O)CSc1nc2ccccc2[nH]1`, the Kd is > 4 mM (inactive).

`O=c1[nH]c2sc3c(c2c2ncnn12)CCCC3`: the Kd was > 4 mM (inactive). With `O=P1(O)c2ccccc2Nc2ccccc21`, the Kd was > 4 mM (inactive). Consider `O=C1NC(=O)C(Cc2ccccc2)C(=O)N1`, for which the Kd is > 4 mM (inactive).

For `COC(=O)c1cncn1C`, the Kd was > 4 mM (inactive). The value for `Cc1ccc(-c2nc(N)n(C(=O)c3cccnc3)n2)cc1` was > 4 mM (inactive). As for `CC(=O)NC(=S)Nc1ccccc1C`, the figure is > 4 mM (inactive); as for `O=C(Nc1cnccn1)c1cccs1`, > 4 mM (inactive). As for `COc1ccc(-c2cc(=O)c3c(OC)c(OC)c(OC)c(OC)c3o2)cc1`, the figure is > 4 mM (inactive); as for `CSCCNC(C)=O`, > 4 mM (inactive). Take `Cc1cc(N2CCN(C)CC2)ncn1`: the Kd is > 4 mM (inactive). For `CC(C)(C)NC(=O)CN1C(=O)c2ccccc2S1(=O)=O`, the Kd is > 4 mM (inactive). Regarding `NC(=O)Cn1cnc(-c2ccc(F)cc2)c1`, the Kd is > 4 mM (inactive). Consider `NC(Cc1c[nH]c2ccccc12)C(=O)O` (stereo unspecified), for which the Kd is > 4 mM (inactive).

Take `Nc1nc(NCc2ccco2)nn1-c1ccccc1`: the Kd is > 4 mM (inactive). For `Nc1ncnc(NC2CCS(=O)(=O)C2)c1[N+](=O)[O-]` (stereo unspecified), the Kd is > 4 mM (inactive). For the compound `Nc1ccc(CN2CCOCC2)cc1`, the Kd is > 4 mM (inactive).

For the compound `Nc1cc(F)nc(F)n1`, the Kd is > 4 mM (inactive). With `CC(C)c1c(O)ccc2c1CCC1[C@@](C)(C=O)CCC[C@]21C` (stereo partly specified), the Kd is > 4 mM (inactive). In the case of `NS(=O)(=O)c1ccc(NC(=O)c2ccccc2F)cc1`, the Kd was > 4 mM (inactive).

Take `Cc1csc2nc(N)nn12`: the Kd is > 4 mM (inactive). As for `Cn1cnnc1SCC(=O)Nc1ccccc1`, the figure is > 4 mM (inactive); as for `OCC1CCCC1O` (stereo unspecified), > 4 mM (inactive). For the compound `COc1ccc(N2CC(=O)NC2=O)cc1`, the Kd was > 4 mM (inactive). Regarding `COc1ccc(/C=C/c2cc(O)cc(O)c2)cc1`, the Kd is > 4 mM (inactive). In the case of `CNc1ccccc1C(=O)O`, the Kd was > 4 mM (inactive).

Take `COc1cccc(NC(=O)c2cccs2)c1`: the Kd is > 4 mM (inactive). On to `O=C(O)c1cccnc1Oc1ccccc1`, for which the Kd was > 4 mM (inactive).

For `CC(=O)N1CN(C(C)=O)CN(C(C)=O)C1`, the Kd is > 4 mM (inactive). As to `O=C(NC(O)C(=O)c1ccccc1)c1ccco1` (stereo unspecified), the Kd is > 4 mM (inactive). Take `O=c1c(O)cc([C@H]2Oc3cc(O)cc(O)c3C[C@H]2O)cc2c([C@H]3Oc4cc(O)cc(O)c4C[C@H]3O)cc(O)c(O)c12`: the Kd is > 4 mM (inactive). Consider `Cc1cccc(C)c1N1C(=O)CCC1=O`, for which the Kd is > 4 mM (inactive). Turning to `O=C1Cn2c(nc3ccccc32)N1c1ccccc1F`, the Kd is > 4 mM (inactive). The value for `CC1=C/C(=C\c2c(O)[nH]c(=O)[nH]c2=O)C(C)=N1` was > 4 mM (inactive). As for `N/N=C/c1cccnc1`, the figure is > 4 mM (inactive). On to `Cc1cccc(N2CCN(C(=O)c3ccncc3)CC2)c1C`, for which the Kd was > 4 mM (inactive). Turning to `Cc1ccc(C(=O)N2CCC(C(N)=O)CC2)c(Cl)c1`, the Kd was > 4 mM (inactive). The value for `COc1ccc(-c2nnc(-c3ccc(N)cc3)o2)cc1` was > 4 mM (inactive). Take `CC(C)=CC(=O)Nc1ccccc1C(N)=O`: the Kd is > 4 mM (inactive). On to `CC(=O)OCC(=O)[C@@]1(O)CCC2C3CC[C@@H]4C[C@H](O)CC[C@]4(C)C3C(=O)C[C@@]21C` (stereo partly specified), for which the Kd is > 4 mM (inactive). Consider `CC(=O)c1c(C)nc(-c2ccc(Cl)cc2Cl)n1O`, for which the Kd was > 4 mM (inactive).

Regarding `Oc1cc2c(cc1O)C1c3ccc(O)c(O)c3OCC1(O)C2` (stereo unspecified), the Kd is > 4 mM (inactive). The value for `S=c1nc2c(n[nH]1)[nH]c1ccccc12` was > 4 mM (inactive). Consider `Cc1cc[n+](-c2nc([O-])sc2C=O)cc1`, for which the Kd is > 4 mM (inactive).

In the case of `OCc1ccc2ncccc2c1`, the Kd is > 4 mM (inactive).

Take `O=C(NC1CCS(=O)(=O)C1)C1CCCCC1` (stereo unspecified): the Kd was > 4 mM (inactive). As for `Cc1c(/C=N/O)cnn1C`, the Kd was > 4 mM (inactive). For the compound `Cc1cc(N)ccc1NC(=O)c1ccco1`, the Kd was > 4 mM (inactive).

Regarding `C=C1C2CC[C@@]3(C)[C@H](c4ccoc4)OC(=O)C[C@]13O[C@H]1CC(=O)C(C)(C)C(CC(=O)OC)C21C` (stereo partly specified), the Kd was > 4 mM (inactive). Take `COc1cc(-c2coc3cc(O[C@@H]4O[C@H](CO)[C@@H](O)[C@H](O)[C@H]4O)c(OC)c(O)c3c2=O)cc(O)c1OC`: the Kd was > 4 mM (inactive). Consider `O=C(NC(=O)N1CCOCC1)c1ccccc1`, for which the Kd is > 4 mM (inactive). Consider `CS(=O)(=O)c1cccc(C(=O)Nc2nccs2)c1`, for which the Kd was > 4 mM (inactive). `NS(=O)(=O)c1ccc2c(c1)OCCO2`: the Kd is > 4 mM (inactive). In the case of `O=[N+]([O-])c1cccc(-c2c[n+](=O)c3c(n2[O-])CCC3)c1`, the Kd is > 4 mM (inactive). For `COc1cc2ccc(=O)oc2c(OC)c1OC`, the Kd was > 4 mM (inactive). For `Cc1nnc(NCc2ccc3c(c2)OCO3)[nH]c1=O`, the Kd was > 4 mM (inactive). Take `COC(=O)[C@@H]1OC(=O)C2OC23[C@@]1(C)CCC1[C@]2(C)C(C[C@H](O)[C@]13C)C(C)(C)[C@H](OC(C)=O)C[C@@H]2OC(C)=O` (stereo partly specified): the Kd is > 4 mM (inactive). Turning to `CC(=O)Nc1ccc(NC(=O)c2ccnn2C)cc1`, the Kd is > 4 mM (inactive).

In the case of `NS(=O)(=O)c1ccc(NC(=O)c2cccs2)cc1`, the Kd was > 4 mM (inactive). The value for `COc1nc(C#N)c(N2CCOCC2)o1` was > 4 mM (inactive); that for `CC(=O)Nc1cccc(NC(=O)c2cccnc2)c1` was > 4 mM (inactive); that for `Cc1nnc(NCCO)[nH]c1=O` was > 4 mM (inactive).

With `CN1CCC2(CC1)CC1CC3C=CC1(CN2)O3` (stereo unspecified), the Kd was > 4 mM (inactive).

Turning to `O=C1C=CC2=C3c4cc(O)c(O)cc4CC3(O)COC2=C1O` (stereo unspecified), the Kd is > 4 mM (inactive). With `NC1=NC(=O)/C(=C\c2ccccc2)S1`, the Kd was > 4 mM (inactive). On to `C[C@@H]1O[C@@H](O[C@H]2[C@H](Oc3cc(O)c4c(=O)cc(-c5ccc(O)cc5)oc4c3)O[C@H](CO)[C@@H](O)[C@@H]2O)[C@H](O)[C@H](O)[C@H]1O`, for which the Kd is > 4 mM (inactive). As for `Cn1c(O)c(/C=C2\C=CC=N2)c(=O)[nH]c1=O`, the figure is > 4 mM (inactive); as for `CS(=O)(=O)Cc1ccccc1`, > 4 mM (inactive). With `COc1cc(O)c(C(=O)c2ccccc2)cc1O`, the Kd is > 4 mM (inactive). For the compound `c1ccc(SCc2nc(-c3cccnc3)no2)cc1`, the Kd was > 4 mM (inactive).

As for `CC(=O)NC(=S)Nc1ccccc1N1CCOCC1`, the Kd is > 4 mM (inactive). On to `CCc1ccc(C(=O)N2CCCC2)s1`, for which the Kd was > 4 mM (inactive). On to `Oc1cc(O)c2c(c1)O[C@H](c1ccc(O)c(O)c1)[C@@H](O)C2`, for which the Kd is > 4 mM (inactive). Consider `C[C@@H]1O[C@@H](O[C@H]2[C@@H](Oc3cc(O)c4c(c3)O[C@H](c3ccc(O)cc3)CC4=O)O[C@H](CO)[C@@H](O)[C@@H]2O)[C@H](O)[C@H](O)[C@H]1O`, for which the Kd was > 4 mM (inactive). As for `Nc1cc(=O)[nH]c(=O)n1Cc1ccco1`, the figure is > 4 mM (inactive); as for `COc1cc(S(=O)(=O)N(C)C)ccc1F`, > 4 mM (inactive); as for `CC1CC[C@]2(NC1)O[C@H]1CC3C4CC[C@H]5C[C@@H](O)CC[C@]5(C)C4CC[C@]3(C)[C@H]1[C@@H]2C` (stereo partly specified), > 4 mM (inactive). With `O=C1CNC(=O)N1Cc1ccc(F)cc1`, the Kd was > 4 mM (inactive).

For the compound `CCOC(=O)c1c(SC)nc(=O)[nH]c1C`, the Kd was > 4 mM (inactive). For the compound `CC(=O)Nc1sccc1C(=O)NC(N)=O`, the Kd is > 4 mM (inactive). The value for `CCn1nccc1C(=O)Nc1ccc(Cl)cc1Cl` was > 4 mM (inactive); that for `O=C(NN1C(=O)c2ccccc2C1=O)c1cccs1` was > 4 mM (inactive).
